Measured values taken from article PMC6566410, “Novel Diamide-Based Benzenesulfonamides as Selective Carbonic Anhydrase IX Inhibitors Endowed with Antitumor Activity: Synthesis, Biological Evaluation and In Silico Insights” (International Journal of Molecular Sciences, 2019).

Columns and labels:
Test in all cases: NCI one-dose SRB assay
Format in all cases: cell-based
NCI-H522 = settings: Homo sapiens, NCI-H522 (Non-Small Cell Lung Cancer), 1.00E-5 Molar, read-out: Growth Percent
Method: (§1) First, all diamide-based benzenesulfonamides herein reported 5a–h were screened for their antitumor activity at one dose (10^−5 M) assay against a panel of sixty cancer cell lines through the National Cancer Institute (NCI) Developmental Therapeutic Program (www.dtp.nci.nih.gov), according to US-NCI protocol. The cell growth and cell viability were evaluated using the sulforhodamine B (SRB) colorimetric assay.
(§2) This assay was carried out according to the protocol of the Drug Evaluation Branch, NCI, Bethesda. The cell growth and cell viability were evaluated using the sulforhodamine B (SRB) colorimetric assay, as reported earlier.

HT29 = settings: Homo sapiens, HT-29, HT29 (Colon Cancer), 1.00E-5 Molar, read-out: Growth Percent
Method: as §1, §2

RXF 393 = settings: Homo sapiens, RXF 393 (Renal Cancer), 1.00E-5 Molar, read-out: Growth Percent
Method: as §1, §2

PC-3 = settings: Homo sapiens, PC-3 (Prostate Cancer), 1.00E-5 Molar, read-out: Growth Percent
Method: as §1, §2

CAKI-1 = settings: Homo sapiens, CAKI-1 (Renal Cancer), 1.00E-5 Molar, read-out: Growth Percent
Method: as §1, §2

T-47D = settings: Homo sapiens, T47D, T-47D (Breast Cancer), 1.00E-5 Molar, read-out: Growth Percent
Method: as §1, §2

UACC-62 = settings: Homo sapiens, UACC-62 (Melanoma), 1.00E-5 Molar, read-out: Growth Percent
Method: as §1, §2

OVCAR-4 = settings: Homo sapiens, OVCAR-4 (Ovarian Cancer), 1.00E-5 Molar, read-out: Growth Percent
Method: as §1, §2

MOLT-4 = settings: Homo sapiens, MOLT-4 (Leukemia), 1.00E-5 Molar, read-out: Growth Percent
Method: as §1, §2

NCI-H460 = settings: Homo sapiens, NCI-H460 (Non-Small Cell Lung Cancer), 1.00E-5 Molar, read-out: Growth Percent
Method: as §1, §2

LOX IMVI = settings: Homo sapiens, LOX IMVI (Melanoma), 1.00E-5 Molar, read-out: Growth Percent
Method: as §1, §2

A498 = settings: Homo sapiens, A498 (Renal Cancer), 1.00E-5 Molar, read-out: Growth Percent
Method: as §1, §2

U251 = settings: Homo sapiens, U-251, U251 (CNS Cancer), 1.00E-5 Molar, read-out: Growth Percent
Method: as §1, §2

HCT-116 = settings: Homo sapiens, HCT-116 (Colon Cancer), 1.00E-5 Molar, read-out: Growth Percent
Method: as §1, §2

A549/ATCC = settings: Homo sapiens, A549/ATCC (Non-Small Cell Lung Cancer), 1.00E-5 Molar, read-out: Growth Percent
Method: as §1, §2

EKVX = settings: Homo sapiens, EKVX (Non-Small Cell Lung Cancer), 1.00E-5 Molar, read-out: Growth Percent
Method: as §1, §2

SK-OV-3 = settings: Homo sapiens, SK-OV-3 (Ovarian Cancer), 1.00E-5 Molar, read-out: Growth Percent
Method: as §1, §2

SN12C = settings: Homo sapiens, SN12C (Renal Cancer), 1.00E-5 Molar, read-out: Growth Percent
Method: as §1, §2

ACHN = settings: Homo sapiens, ACHN (Renal Cancer), 1.00E-5 Molar, read-out: Growth Percent
Method: as §1, §2

SNB-75 = settings: Homo sapiens, SNB-75 (CNS Cancer), 1.00E-5 Molar, read-out: Growth Percent
Method: as §1, §2

NCI-H322M = settings: Homo sapiens, NCI-H322M (Non-Small Cell Lung Cancer), 1.00E-5 Molar, read-out: Growth Percent
Method: as §1, §2

KM12 = settings: Homo sapiens, KM12 (Colon Cancer), 1.00E-5 Molar, read-out: Growth Percent
Method: as §1, §2

HL-60(TB) = settings: Homo sapiens, HL-60(TB) (Leukemia), 1.00E-5 Molar, read-out: Growth Percent
Method: as §1, §2

TK-10 = settings: Homo sapiens, TK-10 (Renal Cancer), 1.00E-5 Molar, read-out: Growth Percent
Method: as §1, §2

OVCAR-3 = settings: Homo sapiens, OVCAR-3 (Ovarian Cancer), 1.00E-5 Molar, read-out: Growth Percent
Method: as §1, §2

MDA-MB-231/ATCC = settings: Homo sapiens, MDA-MB-231/ATCC (Breast Cancer), 1.00E-5 Molar, read-out: Growth Percent
Method: as §1, §2

IGROV1 = settings: Homo sapiens, IGROV-1, IGROV1 (Ovarian Cancer), 1.00E-5 Molar, read-out: Growth Percent
Method: as §1, §2

M14 = settings: Homo sapiens, M14 (Melanoma), 1.00E-5 Molar, read-out: Growth Percent
Method: as §1, §2

SK-MEL-2 = settings: Homo sapiens, SK-MEL-2 (Melanoma), 1.00E-5 Molar, read-out: Growth Percent
Method: as §1, §2

786-0 = settings: Homo sapiens, 786-0 (Renal Cancer), 1.00E-5 Molar, read-out: Growth Percent
Method: as §1, §2

NCI/ADR-RES = settings: Homo sapiens, NCI/ADR-RES (Ovarian Cancer), 1.00E-5 Molar, read-out: Growth Percent
Method: as §1, §2

Row | Structure (SMILES) | activity at 10 µM (NCI-H522) | activity at 10 µM (HT29) | activity at 10 µM (RXF 393) | activity at 10 µM (PC-3) | activity at 10 µM (CAKI-1) | activity at 10 µM (T-47D) | activity at 10 µM (UACC-62) | activity at 10 µM (OVCAR-4) | activity at 10 µM (MOLT-4) | activity at 10 µM (NCI-H460) | activity at 10 µM (LOX IMVI) | activity at 10 µM (A498) | activity at 10 µM (U251) | activity at 10 µM (HCT-116) | activity at 10 µM (A549/ATCC) | activity at 10 µM (EKVX) | activity at 10 µM (SK-OV-3) | activity at 10 µM (SN12C) | activity at 10 µM (ACHN) | activity at 10 µM (SNB-75) | further results
1 | NS(=O)(=O)c1ccc(NC(=O)C(=Cc2ccc(Cl)cc2)NC(=O)c2ccccc2)cc1 [Compound 5a, N-(1-(4-Chlorophenyl)-3-oxo-3-((4-sulfamoylphenyl)amino)prop-1-en-2-yl)benzamide] | 90.9% | 106% | 103% | 105% | 92.5% | 95.5% | 96.2% | 95.5% | 103% | 106% | 97% | 104% | 95.3% | 93.9% | 101% | 99.5% | 97% | 104% | 100% | 86.3% | activity at 10 µM (NCI-H322M): 108%; activity at 10 µM (KM12): 108%; activity at 10 µM (HL-60(TB)): 101%; activity at 10 µM (TK-10): 96.6%; activity at 10 µM (OVCAR-3): 104%; activity at 10 µM (MDA-MB-231/ATCC): 105%; activity at 10 µM (IGROV1): 90.9%; activity at 10 µM (M14): 102%; activity at 10 µM (SK-MEL-2): 102%; activity at 10 µM (786-0): 95.9%; activity at 10 µM (NCI/ADR-RES): 104%
2 | NS(=O)(=O)c1ccc(NC(=O)C(=Cc2ccc(Br)cc2)NC(=O)c2ccccc2)cc1 [Compound 5c, N-(1-(4-Bromophenyl)-3-oxo-3-((4-sulfamoylphenyl)amino)prop-1-en-2-yl)benzamide] | 87.9% | 89.1% | 95.8% | 92.7% | 91% | 92.1% | 88.1% | 93.7% | 89.5% | 107% | 99.7% | 94.5% | 93.1% | 92% | 102% | 102% | 101% | 99.4% | 100% | 86.5% | activity at 10 µM (NCI-H322M): 100%; activity at 10 µM (KM12): 102%; activity at 10 µM (HL-60(TB)): 96.9%; activity at 10 µM (TK-10): 102%; activity at 10 µM (OVCAR-3): 103%; activity at 10 µM (MDA-MB-231/ATCC): 105%; activity at 10 µM (IGROV1): 90.2%; activity at 10 µM (M14): 109%; activity at 10 µM (SK-MEL-2): 97.3%; activity at 10 µM (786-0): 96%; activity at 10 µM (NCI/ADR-RES): 102%
3 | Cc1ccc(C=C(NC(=O)c2ccccc2)C(=O)Nc2ccc(S(N)(=O)=O)cc2)cc1 [Compound 5d, N-(3-Oxo-3-((4-sulfamoylphenyl)amino)-1-(p-tolyl)prop-1-en-2-yl)benzamide] | 89.9% | 103% | 116% | 96.5% | 93.9% | 101% | 99.4% | 90.6% | 81.3% | 108% | 99% | 103% | 99% | 99.3% | 95.4% | 108% | 100% | 94.8% | 108% | 92.6% | activity at 10 µM (NCI-H322M): 108%; activity at 10 µM (KM12): 103%; activity at 10 µM (HL-60(TB)): 88.5%; activity at 10 µM (TK-10): 104%; activity at 10 µM (OVCAR-3): 111%; activity at 10 µM (MDA-MB-231/ATCC): 104%; activity at 10 µM (IGROV1): 99.2%; activity at 10 µM (M14): 110%; activity at 10 µM (SK-MEL-2): 102%; activity at 10 µM (786-0): 100%; activity at 10 µM (NCI/ADR-RES): 99.3%
